Measured values reported in ChEMBL document CHEMBL4266060, “Structure-Property Relationship Studies of Influenza A Virus AM2-S31N Proton Channel Blockers” (ACS Med Chem Lett, 2018).

How the values were obtained:
[1] = tested on: Influenza A virus; assay: microbe, parasite or virus in culture; conditions: MDCK
[2] = tested on: Influenza A virus; assay: microbe, parasite or virus in culture; conditions: MDCK; remark: listed apart in the source
[3] = tested on: Influenza A virus; assay: microbe, parasite or virus in culture; conditions: MDCK; remark: listed apart in the source
[4] = tested on: Influenza A virus; assay: microbe, parasite or virus in culture; conditions: A/North Carolina/29/2009(H1N1), MDCK
[5] = tested on: Influenza A virus; assay: microbe, parasite or virus in culture; conditions: MDCK; remark: listed apart in the source
[6] = tested on: Influenza A virus; conditions: mdck

Compound `OC12CC3CC(C1)CC(NCc1ccc(Br)s1)(C3)C2` has an EC50 [1] of 2000 nM, an EC50 [2] of 600 nM and an EC50 [3] of 1400 nM. It also gave an EC50 [4] of 2800 nM and an EC50 [5] of 700 nM.
In the case of `OC12CC3CC(C1)CC(NCc1ccc(I)s1)(C3)C2`, the EC50 [1] is reported as 700 nM, the EC50 [2] is reported as 600 nM and the EC50 [3] is reported as 800 nM. The EC50 [5] was 400 nM and the EC50 [6] was 1100 nM.
Work on `CCC(CC)O[C@@H]1C=C(C(=O)O)C[C@H](N)[C@H]1NC(C)=O` [OSELTAMIVIR CARBOXYLATE] yielded an EC50 [1] greater than 200 nM, an EC50 [2] greater than 200 nM and an EC50 [3] of 2.5 nM. It also gave an EC50 [4] greater than 200 nM and an EC50 [5] greater than 200 nM.
